Experimental data taken from patent publication US20240024228A1, “Apremilast Ophthalmic Compositions” (APRAMITHA INNOVATIONS PRIVATE LIMITED, priority 2020, published 2024).

Key:
[1] = Solubility study of Apremilast in surfactants and their combinations; format: physicochemical
Description: The solubility of Apremilast was evaluated in various surfactants and their combinations:
About 50 mg of Apremilast (0.05% w/w) was weighed and dissolved in surfactant and or combination of surfactants at different ratios by heating at a temperature below 85° C. After complete solubilization of the Apremilast in the solubilizer matrix, purified water (q.s to 100%) was added, vortexed for 2 minutes and kept aside.

[2] = cited from earlier work
[3] = dissolved by heating below 85° C., water q.s., observed 24 hrs to 1 week

## CCOc1cc([C@@H](CS(C)(=O)=O)N2C(=O)c3cccc(NC(C)=O)c3C2=O)ccc1OC [Apremilast, N-[2-[(1S)-1-(3-ethoxy-4-methoxyphenyl)-2-(methylsulfonyl)ethyl]-1,3-dioxo-2,3-dihydro-1H-isoindol-4-yl]acetamide]
[1]
  Solubility in combination of surfactants (Tween 80 and Kolliphore E L) with PEG400: good solubility
[1]; PEG400 in combination with Tween 80/Kolliphore E L
  Stabilization of API: stabilized
[1]; Tween 80 / kolliphor E. L, 0.001-0.9% w/w of Apremilast
  Surfactant concentration sufficient to stabilise Apremilast: 4 % w/w
[1]; below 2-8% Tween80 / kolliphor E. L concentration
  Precipitation of Apremilast: precipitated out
[1]; combination of Tween 80 and kolliphor E. L
  Appearance of solution / prevention of precipitation: clear solution
[1]; [3]
  Solubility in Tween 80: good solubility
  Solubility in kolliphor E. L: good solubility
[1]; with 2-8% Tween80 and 2-8% kolliphor E. L
  Precipitation of Apremilast: not observed
[1]; with 5% PEG 400 alone
  Precipitation of Apremilast: precipitation was observed
[2]; polar solvents
  Solubility in polar solvents: minimal solubility
[2]; water
  Solubility in water: insolubility
